Values of other authors as cited in US20100021614A1, “COMPOSITION FOR PROMOTING BIOABSORPTION OF FLAVONOID, FOOD/BEVERAGE FOR PROMOTING BIOABSORPTION OF FLAVONOID USING THE COMPOSITION, AND METHOD FOR PRODUCTION OF THE FOOD/BEVERAGE” (priority 2006, published 2010).

Conditions: Wakui et al., J. Chromatog., 575, 131-136 (1992)

In the case of `O=c1cc(-c2ccccc2)oc2cc(O)c(O)c(O)c12` [baicalein], the “fraction of the amount administered that is absorbed” value is listed as 1/300.
